Values quoted from earlier work as cited in article PMC5867622, “Microginins from a Microcystis sp. Bloom Material Collected from the Kishon Reservoir, Israel” (Marine Drugs, 2018).
Read-outs that look alike come from different tables or passages of the source. Square brackets hold non-standard residues; d marks the D form. Peptide text beside a SMILES is read from it. * marks the point of attachment. X1 = N[C@H](CCCCCCC(Cl)Cl)[C@@H](O)C(=O)*; X14 = CCCCCCC[C@@H](N)[C@@H](O)C(=O)*; X6 = N[C@@H](CCCCCCCCl)[C@H](O)C(=O)*; X7 = N[C@H](CCCCCCCCl)[C@@H](O)C(=O)*; X10 = CCCCCCC[C@@H](N)[C@H](O)C(=O)*; NMeY = CN[C@@H](Cc1ccc(O)cc1)C(=O)O; X3 = CCCCCCC[C@H](NC)[C@H](O)C(=O)*; hTyr = N[C@@H](CCc1ccc(O)cc1)C(=O)O; X12 = N[C@H](CCCCCCC(Cl)Cl)CC(=O)*; X9 = CCCCCCC[C@H](N)[C@H](O)C(=O)*; NMeL = CN[CH](CC(C)C)C(=O)O; X2 = N[C@H](CCCCCCCCl)CC(=O)*; NMeV = CN[C@H](C(=O)O)C(C)C; X8 = CCCCCCCC(N)C(O)C(=O)*

Assays:
APM = settings: cited from earlier work; for IC50: Table S1, read-out: Activity: APM; for Activity: APM (ni): Table S1, 'APM, ACE-ni'
ACE = settings: cited from earlier work; for IC50: ref 9 (Sano et al., Phytochem. 2005)
[1] = ref 9 (Sano et al., Phytochem. 2005)
[2] = ref 6 (Ishida et al., Tetrahedron 2000)
[3] = Table S1, ref 6 (Ishida et al., Tetrahedron 2000)
[4] = ref 4 (Ishida et al., Tetrahedron 1998)
[5] = Table S1, ref 4 (Ishida et al., Tetrahedron 1998)

## CCCCCCC[C@@H](N)[C@H](O)C(=O)N[C@@H](C)C(=O)N[C@H](C(=O)N(C)[C@@H](Cc1ccc(O)cc1)C(=O)N[C@@H](CCc1ccc(O)cc1)C(=O)O)C(C)C [Cyanostatin A] (X10-AV[NMeY][hTyr]-OH)
APM; [1]
  IC50: 55 µM
ACE; Table S1
  IC50: 150 µM

## CCCCCCCC(N)C(O)C(=O)NC(Cc1ccc(O)cc1)C(=O)N(C)C(CC(C)C)C(=O)N1CCCC1C(=O)NC(Cc1ccc(O)cc1)C(=O)O (stereo not shown) [Cyanostatin B] (X8-Y[NMeL]PY-OH; configuration not given here)
APM; [1]
  IC50: 16 µM
ACE; Table S1
  IC50: 170 µM

## CCCCCCC[C@H](N)[C@H](O)C(=O)N[C@@H](Cc1ccc(O)cc1)C(=O)N(C)[C@H](C(=O)N(C)[C@@H](Cc1ccc(O)cc1)C(=O)N1CCC[C@@H]1C(=O)N[C@@H](Cc1ccc(O)cc1)C(=O)O)C(C)C [Microginin 51-A] (X9-Y[NMeV][NMeY][dP]Y-OH)
APM; [2]
  IC50: 4.9 µM
ACE; [3]
  Activity: ACE (ni): ni

## CCCCCCC[C@H](NC)[C@H](O)C(=O)N[C@@H](Cc1ccc(O)cc1)C(=O)N(C)[C@H](C(=O)N(C)[C@@H](Cc1ccc(O)cc1)C(=O)N1CCC[C@@H]1C(=O)N[C@@H](Cc1ccc(O)cc1)C(=O)O)C(C)C [Microginin 51-B] (X3-Y[NMeV][NMeY][dP]Y-OH)
APM; [2]
  Activity: APM (ni): ni
ACE; [3]
  Activity: ACE (ni): ni

## CCC(C)C(NC(=O)C(O)C(N)CCCCCCCCl)C(=O)N(C)C(CC(C)C)C(=O)N1CCCC1C(=O)O (stereo not shown) [Microginin 91-B]
APM; [2]
  Activity: APM (ni): ni
ACE; [3]
  Activity: ACE (ni): ni

## CCCCCCC[C@@H](N)[C@@H](O)C(=O)N[C@H](C(=O)N(C)[C@@H](CC(C)C)C(=O)N1CCC[C@H]1C(=O)N[C@@H](Cc1ccc(O)cc1)C(=O)O)[C@@H](C)CC [Microginin 91-C] (X14-I[NMeL]PY-OH)
APM; [2]
  IC50: 71.1 µM
ACE; [3]
  Activity: ACE (ni): ni

## CC[C@H](C)[C@H](NC(=O)[C@H](O)[C@H](N)CCCCCCCCl)C(=O)N(C)[C@@H](CC(C)C)C(=O)N1CCC[C@H]1C(=O)N[C@@H](Cc1ccc(O)cc1)C(=O)O [Microginin 91-D] (X7-I[NMeL]PY-OH)
APM; [2]
  IC50: 43.4 µM
ACE; [3]
  Activity: ACE (ni): ni

## CC[C@H](C)[C@H](NC(=O)[C@H](O)[C@H](N)CCCCCCC(Cl)Cl)C(=O)N(C)[C@@H](CC(C)C)C(=O)N1CCC[C@H]1C(=O)N[C@@H](Cc1ccc(O)cc1)C(=O)O [Microginin 91-E] (X1-I[NMeL]PY-OH)
APM; [2]
  IC50: 19.5 µM
ACE; [3]
  Activity: ACE (ni): ni

## CC(C)C[C@H](NC(=O)[C@H](Cc1ccc(O)cc1)NC(=O)C[C@H](N)CCCCCCCCl)C(=O)N(C)[C@@H](Cc1ccc(O)cc1)C(=O)N1CCC[C@H]1C(=O)O [Microginin 99-A] (X2-YL[NMeY]P-OH)
APM; [4]
  Activity: APM (ni): ni
ACE; [5]
  Activity: ACE (ni): ni

## CC(C)C[C@H](NC(=O)[C@H](Cc1ccc(O)cc1)NC(=O)C[C@H](N)CCCCCCC(Cl)Cl)C(=O)N(C)[C@@H](Cc1ccc(O)cc1)C(=O)N1CCC[C@H]1C(=O)O [Microginin 99-B] (X12-YL[NMeY]P-OH)
APM; [4]
  Activity: APM (ni): ni
ACE; [5]
  Activity: ACE (ni): ni

## CC(C)[C@H](NC(=O)[C@@H](O)[C@@H](N)CCCCCCCCl)C(=O)N(C)[C@H](C(=O)N(C)[C@@H](Cc1ccc(O)cc1)C(=O)N1CCC[C@H]1C(=O)N[C@@H](Cc1ccc(O)cc1)C(=O)O)C(C)C [Microginin 299-A] (X6-V[NMeV][NMeY]PY-OH)
APM; ref 2 (Ishida et al., Tetrahedron 1997)
  IC50: 5.2 µM
ACE; Table S1, ref 2 (Ishida et al., Tetrahedron 1997)
  Activity: ACE (ni): ni

## CCCCCCC[C@H](N)[C@H](O)C(=O)N(C)[C@@H](CCSC)C(=O)N[C@@H](Cc1ccc(O)cc1)C(=O)N[C@@H](Cc1ccc(O)cc1)C(=O)O [Microginin 674]
ACE; Table S1, ref 15 (Product of LKT Laboratories, Inc.)
  Activity: ACE inhibitor

## CCCCCCC[C@H](N)[C@H](O)C(=O)N(C)[C@@H](CC[S+](C)[O-])C(=O)N[C@@H](Cc1ccc(O)cc1)C(=O)N[C@@H](Cc1ccc(O)cc1)C(=O)O (stereo partly shown) [Microginin 690]
ACE; Table S1, ref 16 (Product of Santa Cruz Biotechnology)
  Activity: ACE inhibitor

## CCCCCCCC(N)C(O)C(=O)N[C@@H](C)C(=O)N[C@H](C(=O)N(C)[C@@H](Cc1ccc(O)cc1)C(=O)N[C@@H](Cc1ccc(O)cc1)C(=O)O)C(C)C (stereo partly shown) [Microginin] (X8-AV[NMeY]Y-OH)
ACE; Table S1, activity named without value, ref 1 (Okino et al., Tetrahedron Lett. 1993)
  Activity: ACE
